Test results: patent publication US7501513B2, “Immunosuppressive effects of pteridine derivatives” (4 AZA Bioscience NV, priority 2003, dated 2009)
Read-outs that look alike come from different tables or passages of the source. One block for each compound: values may come before it.

What was measured:
[1] = system: Peripheral blood mononuclear cells; assay: Mixed lymphocyte reaction (MLR) test; assay type: cell-based, human; conditions: 50% suppression of the MLR
Description: (§1) Pteridine derivatives were first dissolved (10 mM) in dimethylsulfoxide (hereinafter referred as DMSO) and further diluted in culture medium before use for the following in vitro experiments. The commercially available culture medium consisted of RPMI-1640+10% foetal calf serum (FCS). Some pteridine derivatives described the previous examples were tested in the following lymphocyte activation tests:
(§2) Peripheral blood mononuclear cells (hereinafter referred as PBMC) were isolated from heparinized peripheral blood by density gradient centrifugation over Lymphoprep (Nycomed, Maorstua, Norway). Allogeneic PBMC or Eppstein-Barr Virus-transformed human B cells [commercially available under the trade name RPMI1788 (ATCC name CCL156)] which strongly express B7-1 and B7-2 antigens were used as stimulator cells after irradiation with 30 Gy. MLR was performed in triplicate wells. After 5 days incubation at 37° C., 1 μCi [^3H]-thymidine was added to each cup. After a further 16 hours incubation, cells were harvested and counted in a β-counter. Inhibition of proliferation by a compound (drug) described in some of the previous examples was counted using the formula:
(§3) [formula] wherein cpm is the thymidine count per minute. The MLR assay is regarded by those skilled in the art as an in vitro analogue of the transplant rejection since it is based on the recognition of allogeneic major histocompatibility antigens on the stimulator leukocytes, by responding lymphocytes. Assays for CD3 and CD 28
Pteridine derivatives were first dissolved (10 mM) in dimethylsulfoxide (hereinafter referred as DMSO) and further diluted in culture medium before use for the following in vitro experiments. The commercially available culture medium consisted of RPMI-1640+10% foetal calf serum (FCS). Some pteridine derivatives described in the previous examples (as indicated in table 3 below) were tested in the following mixed lymphocyte reaction (MLR) assay.
as §2, with “CCL156)]which” for “CCL156)] which”
as §3, with “lymphocytes.” for “lymphocytes. Assays for CD3 and CD 28”

[2] = system: Highly purified T cells stimulated by anti-CD3 mAb; assay: CD3 assay: T-cell proliferation stimulated by immobilized anti-CD3 mAb + PMA (BrdU); assay type: cell-based, human; conditions: 50% reduction in T-cell proliferation, read-out: CD 3 IC50
Description: as §1
(§4) T cells were purified by removing non-T cells. Briefly, monocytes were removed by cold agglutination. The resulting lymphoid cells were further purified by a cell enrichment immunocolumn [Cellect Human T commercially available from Biotex, Edmonton, Alberta, Canada)] by a process of negative selection. More than 95% of the B cells were removed with this procedure. After depletion, the resulting T cell preparation was highly purified, i.e. these cells could not be activated by phytohaemagglutinin (PHA) or rIL-2 alone at concentrations capable of stimulating RBMC prior to deletion.
(§5) Highly purified T cells (10^6/ml) were stimulated by immobilized anti-CD3 or anti-CD28 monoclonal antibodies (hereinafter referred as mAb) in the presence of phorbol myristate acetate (hereinafter referred as PMA). Anti-CD3 mAb (available from CLB, Amsterdam, Netherlands) were fixed on a 96-microwell plates by incubating the wells with 50 μl of mAb solution (1/800 dilution in culture medium). For anti-CD28 mAb (available from CLB, Amsterdam, Netherlands) 50 μl (1/650 dilution in culture medium) was added directly to the wells. Further, a 20 μl PMA (commercially available from Sigma, St. Louis, Mo., USA) solution (final concentration: 0.5 ng/ml) was added. Subsequently, 20 μl of a pteridine derivative described in the previous examples were added by serial dilution in triplicate wells. Finally 100 μl of the T-cell suspension (10^6/ml) was added. After 48-hour incubation at 37° C. in 5% CO2, 20 μl of a bromo-deuridine (hereinafter referred as BrdU) 100 μM solution (commercially available as Cell Proliferation Elisa from Boehringer-Mannheim Belgium) was added to each well. After a further overnight incubation, T-cell proliferation was measured using a calorimetric immuno-assay for qualification of cell proliferation based on the incorporation of BrdU during DNA synthesis. Optical density (hereinafter referred as OD) was measured by a Behring EL311 plate reader at 450 nm (reference wavelength: 690 nm). Inhibition of proliferation by the pteridine derivative (drug) was counted while using the formula: […]

[3] = system: Highly purified T cells stimulated by anti-CD28 mAb; assay: CD28 assay: T-cell proliferation stimulated by anti-CD28 mAb + PMA (BrdU); assay type: cell-based, human; conditions: 50% reduction in T-cell proliferation
Description: as §1, §4, §5

human TNF-α = assay: TNF-α assay: suppression of TNF-α production by LPS-stimulated PBMC (ELISA); assay type: cell-based; conditions: LPS 1 μg/ml, 72 hours
Description: (§6) Peripheral blood mononuclear cells (herein referred as PBMC), in response to stimulation by lipopolysaccharide (LPS), a gram-negative bacterial endotoxin, produce various […], in particular human TNF-α and IL-1 β. Inhibition of the activation of PBMC can therefore be measured by the level of suppression of the production of TNF-α or IL-1 β by PBMC in response to stimulation by LPS.
(§7) Such inhibition measurement was performed as follows: PBMC were isolated from heparinized peripheral blood by density gradient centrifugation over Lymphoprep (commercially available from Nycomed, Norway). LPS was then added to the PMBC suspension in complete medium (10^6 cells/ml) at a final concentration of 1 μg/ml. The pteridine derivative to be tested was added at different concentrations (0.1 μM, 1 μM and 10 μM) and the cells were incubated at 37° C. for 72 hours in 5% CO2. The supernatants were collected, then TNF-α and/or IL-1 β concentrations were measured with respectively an anti-TNF-α antibody or an anti-IL-1 β antibody in a sandwich ELISA (Duo Set ELISA human TNFα, commercially available from R&D Systems, United Kingdom). The calorimetric reading of the ELISA was measured by a Multiskan RC plate reader (commercially available from ThermoLabsystems, Finland) at 450 nm (reference wavelength: 690 nm). Data analysis was performed with Ascent software 2.6. (also from ThermoLabsystems, Finland): a standard curve (recombinant human TNFα) was drawn and the amount (pg/ml) of each sample on the standard curve was determined.
The % suppression of human TNFα production or human IL-1 β by the pteridine derivatives of the invention (drugs) was calculated using the formula: […]
as §6, with “(hereinafter LPS),” for “(LPS),”, “TNF-α.” for “TNF-α and IL-1 β.”, “TNF-α” for “TNF-α or IL-1 β”
as §7, with “TNF-α” for “TNF-α and/or IL-1 β”, “with” for “with respectively”, “anti-TNF-α” for “anti-TNF-α antibody or an anti-IL-1 β”, “TNF-α,” for “TNFα,”, “colorimetric” for “calorimetric”
The % suppression of human TNFα production by the pteridine derivatives of the invention (drugs) was calculated using the formula: […]

- IC50 ([1]; Homo sapiens, PBMC, Table 3): 4.3 µM
- IC50 (human TNF-α; Homo sapiens, PBMC, Table 4): 2.1 µM
Compound: Nc1nc(N2CCOCC2)c2nc(-c3ccc(O)cc3)cnc2n1 [Example 102, 2-amino-4-morpholino-6-(4-hydroxyphenyl)pteridine]

- IC50 ([1]; Homo sapiens, PBMC, Table 3): 3.7 µM
- IC50 (human TNF-α; Homo sapiens, PBMC, Table 4): > 10 µM
Compound: CCOc1ccc(-c2cnc3nc(N)nc(N4CCOCC4)c3n2)cc1 [Example 103, 2-amino-4-morpholino-6-(4-ethoxyphenyl)pteridine]

- IC50 ([1]; Homo sapiens, PBMC, Table 3): 6.8 µM
- IC50 (human TNF-α; Homo sapiens, PBMC, Table 4): > 10 µM
Compound: CCCOc1ccc(-c2cnc3nc(N)nc(N4CCOCC4)c3n2)cc1 [Example 107, 2-amino-4-morpholino-6-(4-propoxy-phenyl)pteridine]

- IC50 ([1]; Table 3): 6 µM
- IC50 (human TNF-α; Table 4): 3.4 µM
Compound: COc1ccc(-c2cnc3nc(N)nc(N(CCO)CCO)c3n2)cc1OC [Example 112]

- IC50 ([1]; Table 3): 6 µM
- IC50 (human TNF-α; Table 4): 7.1 µM
Compound: COc1ccc(-c2cnc3nc(N)nc(NCCc4ccccc4)c3n2)cc1OC [Example 114]

- IC50 ([1]; Table 3): 4.1 µM
- IC50 (human TNF-α; Table 4): 7.2 µM
Compound: COc1ccc(-c2cnc3nc(N)nc(NCc4cccs4)c3n2)cc1OC [Example 116]

- IC50 ([1]; Table 3): 0.4 µM
- IC50 (human TNF-α; Table 4): 0.5 µM
Compound: COc1ccc(-c2cnc3nc(N)nc(N4CCSCC4)c3n2)cc1OC [Example 118]

- IC50 ([1]; Table 3): 0.5 µM
- IC50 (human TNF-α; Table 4): 0.2 µM
Compound: CC[C@@H](C)Nc1nc(N)nc2ncc(-c3ccc(OC)c(OC)c3)nc12 [Example 119]

- IC50 ([1]; Table 3): 0.2 µM
- IC50 (human TNF-α; Table 4): 0.3 µM
Compound: CC[C@H](C)Nc1nc(N)nc2ncc(-c3ccc(OC)c(OC)c3)nc12 [Example 120]

Further lines, the compound ahead of its results:

Compound: CCOc1nc(N)nc2ncc(-c3cccc(OC)c3)nc12 [Example 15, 2-amino-6-(m-methoxyphenyl)-4-ethoxy-pteridine]
- IC50 ([1]; Homo sapiens, PBMC, Table 1): 8.3 µM
- IC50 ([2]; Homo sapiens): 20 µM
- IC50 ([3]; Homo sapiens): 7 µM
- IC50 (human TNF-α; Homo sapiens, PBMC, Table 2): > 10 µM

Compound: CCOc1nc(N)nc2ncc(-c3ccc(F)c(F)c3)nc12 [Example 16]
- IC50 ([1]; Table 1): > 10 µM
- IC50 [2]: 9 µM
- IC50 [3]: 4 µM

Compound: CCOc1nc(N)nc2ncc(-c3ccc(C(F)(F)F)cc3)nc12 [Example 18, 2-amino-6-(p-trifluoromethylphenyl)-4-ethoxy-pteridine]
- IC50 ([1]; Homo sapiens, PBMC, Table 1): 10 µM
- IC50 ([2]; Homo sapiens): 10 µM
- IC50 ([3]; Homo sapiens): 0.8 µM

Compound: CCOc1nc(N)nc2ncc(-c3ccsc3)nc12 [Example 20, 2-amino-6-(3-thienyl)-4-ethoxy-pteridine]
- IC50 ([2]; Homo sapiens): 15 µM
- IC50 ([3]; Homo sapiens): 0.7 µM

Compound: CCOc1nc(N)nc2ncc(-c3ccc(CC)cc3)nc12 [Example 25, 2-amino-6-(p-ethylphenyl)-4-ethoxy-pteridine]
- IC50 ([1]; Homo sapiens, PBMC, Table 1): 8.2 µM
- IC50 ([2]; Homo sapiens): 10 µM
- IC50 ([3]; Homo sapiens): 10 µM
- IC50 (human TNF-α; Homo sapiens, PBMC, Table 2): 8.5 µM

Compound: Cc1ccc(-c2cnc3nc(N)nc(OC(C)C)c3n2)cc1C [Example 32, 2-amino-6-(3,4-dimethylphenyl)-4-isopropoxypteridine]
- IC50 ([1]; Homo sapiens, PBMC, Table 1): 10 µM
- IC50 (human TNF-α; Homo sapiens, PBMC, Table 2): 6.7 µM

Compound: CC(=O)Nc1ccc(-c2cnc3nc(N)nc(N4CCOCC4)c3n2)cc1 [Example 72, 2-amino-4-morpholino-6-(4-acetanilide)pteridine]
- IC50 ([1]; Table 3): 8.6 µM
- IC50 (human TNF-α; Table 4): 8.4 µM

Compound: Nc1ccc(-c2cnc3nc(N)nc(N4CCOCC4)c3n2)cc1 [Example 74, 2-amino-morpholino-6-(4-aminophenyl)pteridine]
- IC50 ([1]; Table 3): 1.1 µM
- IC50 (human TNF-α; Table 4): 2.5 µM

Compound: CCS(=O)(=O)Nc1cccc(-c2cnc3nc(N)nc(N4CCOCC4)c3n2)c1 [Example 97, 2-amino-4-morpholino-6-(3-ethylsulfonylaminophenyl)pteridine]
- IC50 ([1]; Homo sapiens, PBMC, Table 3): 3.3 µM
- IC50 (human TNF-α; Homo sapiens, PBMC, Table 4): > 10 µM

Compound: CC(C)(C)OC(=O)N[C@@H](Cc1ccccc1)C(=O)Nc1cccc(-c2cnc3nc(N)nc(N4CCOCC4)c3n2)c1 [Example 98, 2-amino-4-morpholino-6-[3-Boc-(L)-phenylalanine-aminophenyl]pteridine]
- IC50 ([1]; Table 3): 3.9 µM
- IC50 (human TNF-α; Table 4): 2.9 µM

Compound: COc1ccc(-c2cnc3nc(N)nc(N4CCC(C)CC4)c3n2)cc1OC [Example 115]
- IC50 ([1]; Table 3): 0.8 µM
- IC50 (human TNF-α; Table 4): 0.3 µM
